Results published in PubChem BioAssay (NCI).
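96-well plates; 48 h exposure; 5 concentrations. Endpoints by linear interpolation between flanking doses. Not reached: highest tested concentration assigned. TGI: concentration producing complete growth inhibition.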

Assays:
Test in all cases: NCI-60 cell line screen, 48 h
786-0 renal = test system: 786-0 renal
A498 renal = test system: A498 renal
A549 NSCLC = test system: A549 NSCLC
ACHN renal = test system: ACHN renal
BT-549 breast = test system: BT-549 breast
COLO 205 colon = test system: COLO 205 colon
DU-145 prostate = test system: DU-145 prostate
EKVX NSCLC = test system: EKVX NSCLC
HCC-2998 colon = test system: HCC-2998 colon
HCT-116 colon = test system: HCT-116 colon
HCT-15 colon = test system: HCT-15 colon
HOP-62 NSCLC = test system: HOP-62 NSCLC
HOP-92 NSCLC = test system: HOP-92 NSCLC
HT29 colon = test system: HT29 colon
IGROV1 ovarian = test system: IGROV1 ovarian
K-562 leukemia = test system: K-562 leukemia
KM12 colon = test system: KM12 colon
M14 melanoma = test system: M14 melanoma
MALME-3M melanoma = test system: MALME-3M melanoma
MCF7 breast = test system: MCF7 breast
MDA-MB-231 breast = test system: MDA-MB-231 breast
MDA-MB-435 = test system: MDA-MB-435
MDA-N = test system: MDA-N
MOLT-4 leukemia = test system: MOLT-4 leukemia
NCI-H226 lung = test system: NCI-H226 lung
NCI-H23 lung = test system: NCI-H23 lung
NCI-H460 lung = test system: NCI-H460 lung
NCI-H522 lung = test system: NCI-H522 lung
NCI/ADR-RES ovarian = test system: NCI/ADR-RES ovarian
OVCAR-4 ovarian = test system: OVCAR-4 ovarian
OVCAR-5 ovarian = test system: OVCAR-5 ovarian
PC-3 prostate = test system: PC-3 prostate
RPMI-8226 leukemia = test system: RPMI-8226 leukemia
RXF 393 renal = test system: RXF 393 renal
SF-268 CNS = test system: SF-268 CNS
SF-295 CNS = test system: SF-295 CNS
SK-MEL-2 melanoma = test system: SK-MEL-2 melanoma
SK-MEL-28 melanoma = test system: SK-MEL-28 melanoma
SK-MEL-5 melanoma = test system: SK-MEL-5 melanoma
SK-OV-3 ovarian = test system: SK-OV-3 ovarian
SN12C renal = test system: SN12C renal
SNB-19 CNS = test system: SNB-19 CNS
SNB-75 CNS = test system: SNB-75 CNS
SW-620 colon = test system: SW-620 colon
TK-10 renal = test system: TK-10 renal
U251 CNS = test system: U251 CNS
UACC-257 melanoma = test system: UACC-257 melanoma
UACC-62 melanoma = test system: UACC-62 melanoma
UO-31 renal = test system: UO-31 renal

Measured: TGI

CC1=C2C(=C[C@H]3[C@]4(C)CCCC(C)(C)[C@H]4CC[C@]34O[C@H]24)OC1=O
> 100 µM: all assays above
